Format in all cases: cell-based
Assay [1] concerns costimulatory molecules of LPS-stimulated human dendritic cells. Nature of the assay: Costimulatory molecules on LPS-stimulated human monocyte-derived dendritic cells (flow cytometry). As to conditions: Dendritic cell, 24 h, LPS 0.1 μg/ml, D-amino acid 10 μM, mean ± SD of three experiments, relative to LPS-induced expression. The protocol:
Generation of human monocyte-derived dendritic cells. Peripheral venous blood was obtained from healthy volunteers aged between 20 and 50 years after informed consent. Individuals with allergic disease, acute infection or taking any medication 20 days prior to blood sampling or any history of smoking (personal interview) were excluded prior to blood sampling. All experiments were conducted according to the principles expressed in the Declaration of Helsinki.
(§1) Peripheral blood mononuclear cells (PBMC) were isolated from heparinized whole blood by density gradient centrifugation (2000 rpm, 22° C., 20 min) (Biocoll, Biochrom AG, Berlin, Germany). […] Purity and viability of DCs was assessed by flow cytometry (FIG. 9A-C).
Costimulatory molecules on human DCs. The following primary monoclonal antibodies were used: CD83 fluorescein isothiocyanate (FITC); CD1a phycoerythrin (PE); CD86-FITC; CD80-PE; CD14 allophycocyanine (APC); CD40-APC; CD3-peridinin chlorophyll protein (PerCP); HLA-DR-PerCP; mouse immunoglobulins G1 (IgG1) mouse immunoglobulins G1 (IgG1) κ were used as isotype controls using the corresponding fluorochromes (all purchased from BD Biosciences, Heidelberg, Germany). To account for donor dependent variability of DC surface markers, all data were normalized to the expression induced by LPS which was set to 100% after subtraction of background values (FACS Canto, FACS DIVA software, Version 5.0.3, BD Biosciences, Heidelberg, Germany). Murine DC subsets and CD4^+ T cells. Single cell suspensions of splenocytes were obtained by filtering spleens through a 70 μm strainer. Samples were stained with CD3-PB (1:200, Biolegend, San Diego, USA), CD4-APC-H7 (BD, 1:400), CD11c-APC-Cy7 (1:100), Mhc-II-Percp-Cy5 (1:100), CD11b-FITC (1:100), CD80-AF647, CD40-APC (1:100). For intracellular cytokines, total spleen cells were stimulated with anti-CD3 (4 μg/mL, BD Bioscience, Heidelberg, Germany) and anti-CD28 (30 ng/mL, BD Bioscience, Heidelberg, Germany) for 16 h. 1×10^6 of total lung cells were stimulated for 16 h with MACSiBead particles coated with anti-CD3 and anti-CD28 using the T cell activation/expansion kit (Miltenyi Biotec, Bergisch Gladbach, Germany) in TexMACS medium (Miltenyi Biotec) according to the manufactures recommendations. Prior to staining, cells were treated with monensin (0.7 μL/mL, BD Golgi Stop, BD Bioscience, Heidelberg, Germany) for 6 h at 37° C. and intracellularly stained for II-4-PE (1:100, eBioscience, Vienna, Austria according to the manufacturer's protocols. Intracellular staining for Foxp3 was performed by using the Foxp3/Transcription Factor Staining buffer set (eBiosciences, Vienna, Austria) according to the manufacturer's recommendations.
Bioassays for screening for immune modulatory activity in probiotic supernatants. Two biological assays based on down-modulation of costimulatory molecules on human DCs, and of CCL17-secretion by a human Hodgkin lymphoma T cell line (KM-H2) were set up. Human immature DCs were matured with 0.1 μg/mL lipopolysaccharide (LPS) from E. coli (Sigma-Aldrich, St. Louis, USA) in the presence or absence of 200 μL bacteria free supernatants for 24 h followed by flow cytometric analysis of costimulatory molecules.

Another assay has as its system human LPS treated DCs. Nature of the assay: Cytokine secretion of human DCs (multiplex assay). As to conditions: for IFN-g / IL-5 / IL-10 / IL-12: 200 μl supernatant or amino acid 10 μM, 14 h. The protocol:
as §1
[…] For probiotic supernatants, blank CDM1 was used as medium control. […] IL-5, IFN-gamma, IL-12, and IL-10, were quantified by a multiplex assay (Milliplex Human Cytokine Immunoassay, Millipore GMbH Schalbach, Germany) as described by the manufacturer.

The test system of assay [2] is CCL17 secretion of human Hodgkin lymphoma KM-H2 cells. Nature of the assay: CCL17 secretion bioassay with KM-H2 cells (ELISA). As to conditions: different concentrations, 24 h. The method, then: Human T cell line KM-H2. The human Hodgkin lymphoma T cell line (KM-H2) was purchased from the Leibniz Institute DSMZ-German Collection of Microorganisms and Cell Cultures, Braunschweig, Germany. 3-5×10^6 KM-H2 cells were grown in 4 mL RPMI 1640 per well in 6-well-plates (Nunc, Wiesbaden, Germany). All eukaryotic cells were cultured in 5% CO2 at 37° C. (HeraCell 240 and Heraeus BDD 6220, Thermo Fisher Scientific, Waltham, USA). Viability of cells after treatment with bacterial supernatants was assessed by trypan blue, 7-AAD and CellTiter-Blue® staining. (FIG. 9A-C)
Quantification of CCL17 and cytokines in eukaryotic cell culture supernatants. CCL17 was quantified in cell culture supernatants of KM-H2 cells using ELISA reagent Quantikine CCL17/TARC, (R&D Systems, Minneapolis, USA) according to the manufacturer's instructions (ELISA reader MRXII, Thermo Fisher Scientifc, Waltham, USA).
Bioassays for screening for immune modulatory activity in probiotic supernatants. Two biological assays based on down-modulation of costimulatory molecules on human DCs, and of CCL17-secretion by a human Hodgkin lymphoma T cell line (KM-H2) were set up. […]
Similarly, 200 μL supernatants were added to 3-5×10^6 KM-H2 cells for 24 h. Supernatants were collected from KM-H2 by centrifugation and stored at −80° C. until quantification of CCL17. […]
In general terms: An ELISA detects its analyte on a solid surface through an enzyme-linked reagent.

Where [3] appears, read: read-out: Percentage of CD40 expressing mature DCs.
Where [4] appears, read: read-out: Percentage of CD80 expressing mature DCs.
[5] abbreviates: read-out: Percentage of CD83 expressing mature DCs.
Where [6] appears, read: read-out: Percentage of CD86 expressing mature DCs.
[7] abbreviates: read-out: Percentage of HLA-DR expressing mature DCs.

Where two headings read alike, the source gives them in different places.

With `CSCC[C@@H](N)C(=O)O` [D-methionine], the activity at 10 µM came out at 102.7 ± 0.6% in assay [1] (setting [3]); 100.4 ± 0.2% in assay [1] (setting [4]); 102 ± 2.2% in assay [1] (setting [5]); 102 ± 2.5% in assay [1] (setting [6]); 98.9 ± 2% in assay [1] (setting [7]).

On to `C[C@H](O)[C@@H](N)C(=O)O` [D-threonine], for which the activity at 10 µM in assay [1] (setting [3]) is 101 ± 1.5%; in assay [1] (setting [4]), 100.8 ± 0.4%; in assay [1] (setting [5]) it was 102.6 ± 0.5%; in assay [1] (setting [6]), 102.1 ± 0.7%; in assay [1] (setting [7]) it was 97.1 ± 3.9%.

In the case of `CC[C@@H](C)[C@@H](N)C(=O)O` [D-isoleucine], the activity at 10 µM in assay [1] (setting [3]) was 100 ± 2.4%; in assay [1] (setting [4]), 98.2 ± 1.5%; in assay [1] (setting [5]), 100 ± 1.1%; in assay [1] (setting [6]), 99.8 ± 1.2%; in assay [1] (setting [7]) it was 100.1 ± 0.3%.

Consider `N[C@H](CO)C(=O)O` [D-serine], for which the activity at 10 µM in assay [1] (setting [3]) came to 101 ± 1.1%; in assay [1] (setting [4]) it was 100 ± 2.8%; in assay [1] (setting [5]), 100.8 ± 0.3%; in assay [1] (setting [6]) it was 101 ± 2.8%; in assay [1] (setting [7]), 98.6 ± 0.6%.

Turning to `O=C(O)[C@H]1CCCN1` [D-proline], the activity at 10 µM in assay [1] (setting [3]) was found to be 99.2 ± 1.3%. Also, the activity at 10 µM in assay [1] (setting [4]) is 100.3 ± 0.1%. Moreover, the activity at 10 µM in assay [1] (setting [5]) came to 100.9 ± 0.4%. For the same compound, in assay [1] (setting [6]), the activity at 10 µM is 101 ± 1.9%. Further, in assay [1] (setting [7]), the activity at 10 µM stood at 98.4 ± 2.6%. Also, in the assay with human LPS treated DCs (with LPS 0.1 μg/ml), the “Ratio IL-5/IFN-g” value turned out to be 0.030, the “Ratio IL-10/IL-12” value is on record as 0.002, the IFN-g was determined as 2295.40 pg/mL and the IL-5 is 69.10 pg/mL. In the assay on human LPS treated DCs (with LPS 0.1 μg/ml), this compound yielded an IL-10 of 4.00 pg/mL and an IL-12 of 1911.90 pg/mL. Moreover, in the assay with human LPS treated DCs (without LPS), the “Ratio IL-5/IFN-g” value worked out at 0.171, the “Ratio IL-10/IL-12” value came to 0.065, the IFN-g turned out to be 92.60 pg/mL and the IL-5 is 15.80 pg/mL. Further, in the assay with human LPS treated DCs (without LPS), the IL-10 worked out at 5.90 pg/mL and the IL-12 was 90.60 pg/mL.

As for `N[C@H](Cc1c[nH]cn1)C(=O)O` [D-histidine], the activity at 10 µM came out at 101 ± 3.2% in assay [1] (setting [3]); 102 ± 0.9% in assay [1] (setting [4]); 103.1 ± 0.3% in assay [1] (setting [5]); 102.5 ± 0.4% in assay [1] (setting [6]); 99.9 ± 0.9% in assay [1] (setting [7]).

As for `N[C@@H](Cc1c[nH]c2ccccc12)C(=O)O` [L-Trp, L-Tryptophan], in assay [2], the “immune activity of synthetic tryptophan isomers in the CCL17 bioassay” value was “inactive”. Also, in the assay with human LPS treated DCs (with LPS 0.1 μg/ml), the “Ratio IL-5/IFN-g” value stood at 0.030, the “Ratio IL-10/IL-12” value amounted to 0.002, the IFN-g was determined as 2031.50 pg/mL and the IL-5 was determined as 61.40 pg/mL. Also, in the assay on human LPS treated DCs (with LPS 0.1 μg/ml), the IL-10 was 4.90 pg/mL and the IL-12 turned out to be 1993.00 pg/mL. In the assay on human LPS treated DCs (without LPS), the “Ratio IL-5/IFN-g” value is listed as 0.267, the “Ratio IL-10/IL-12” value is reported as 0.065, the IFN-g stood at 45.00 pg/mL and the IL-5 came out at 12.00 pg/mL. Moreover, in the assay on human LPS treated DCs (without LPS), the IL-10 is 5.70 pg/mL and the IL-12 turned out to be 88.30 pg/mL.

Consider `O=C(O)[C@@H]1CCCN1` [L-Pro, L-Prolin], for which, in the assay on human LPS treated DCs (with LPS 0.1 μg/ml), the “Ratio IL-5/IFN-g” value turned out to be 0.027, the “Ratio IL-10/IL-12” value was determined as 0.003, the IFN-g is 2133.90 pg/mL and the IL-5 turned out to be 57.70 pg/mL. In the assay on human LPS treated DCs (with LPS 0.1 μg/ml), this compound showed an IL-10 of 6.00 pg/mL and an IL-12 of 1938.00 pg/mL. Besides, in the assay on human LPS treated DCs (without LPS), the “Ratio IL-5/IFN-g” value turned out to be 0.166, the IFN-g stood at 88.90 pg/mL, the IL-5 stood at 14.80 pg/mL and the IL-12 is 99.80 pg/mL.

Consider `N[C@H](Cc1ccc(O)cc1)C(=O)O` [D-tyrosin], for which the activity at 10 µM is 100 ± 1.3% in assay [1] (setting [3]); 101.6 ± 0.4% in assay [1] (setting [4]); 101.6 ± 0.6% in assay [1] (setting [5]); 102.2 ± 0.9% in assay [1] (setting [6]); 98.4 ± 2.4% in assay [1] (setting [7]).

In the case of `N[C@H](Cc1ccccc1)C(=O)O` [D-phenylalanine], the activity at 10 µM in assay [1] (setting [3]) amounted to 100 ± 2.7%; in assay [1] (setting [4]), 92.4 ± 3.5%; in assay [1] (setting [5]), 99.6 ± 2%; in assay [1] (setting [6]), 99.2 ± 3.3%; in assay [1] (setting [7]) it was 98 ± 3.2%.

Turning to `C[C@@H](N)C(=O)O` [D-alanine], the activity at 10 µM in assay [1] (setting [3]) worked out at 102 ± 3.4%; in assay [1] (setting [4]) it was 98.3 ± 2.6%; in assay [1] (setting [5]), 97.7 ± 2.3%; in assay [1] (setting [6]) it was 99.2 ± 2.1%; in assay [1] (setting [7]), 98.1 ± 1.1%.

For `CC(C)C[C@@H](N)C(=O)O` [D-leucine], the activity at 10 µM in assay [1] (setting [3]) turned out to be 100 ± 1.7%; in assay [1] (setting [4]), 100 ± 1.6%; in assay [1] (setting [5]), 97.1 ± 2.4%; in assay [1] (setting [6]), 102 ± 1.3%; in assay [1] (setting [7]) it was 98 ± 10%.

For the compound `CC(C)[C@@H](N)C(=O)O` [D-valine], the activity at 10 µM in assay [1] (setting [3]) turned out to be 101 ± 2.4%; in assay [1] (setting [4]) it was 99.6 ± 2%; in assay [1] (setting [5]) it was 102 ± 1.2%; in assay [1] (setting [6]), 101.8 ± 0.9%; in assay [1] (setting [7]) it was 100 ± 1%.

For the origin of these results see US10857128B2, “Methods and compositions for treating inflammatory diseases” (Helmholtz Zentrum München Deutsches Forschungszentrum für …, priority 2017, dated 2020).
